Experimental data as given in US9241941B2, “Methods for treatment of lymphomas with mutations in cell cycle genes” (priority 2012, dated 2016).

Legend:
[1] = test system: cell lines that carry the translocation t(14;18) (DoHH2, Su-DHL-6, Su-DHL-16, Ly8); experiment: Viability / apoptosis of human lymphoma lines after in vitro treatment; assay type: cell-based; conditions: for induction of apoptosis / cell death in vitro, single agent: FL-derived cell lines, 1 μM; for selectivity for cell lines carrying translocation t(14;18): panel of human lymphoma lines, viability after 24 h
Method: Cell culture, cell cycle and viability assays. Lymphoma cell lines DoHH2, Ly-8, Su-DHL-6, Su-DHL-16, Su-DHL-8 and Su-DHL-10 were maintained in RPMI 1640 with 10% fetal bovine serum, 1% L-Glutamine and 1% penicillin/streptomycin. […] Briefly, cells were seed at 5×10^5 per mL and they were treated with PD-0332991 and/or ABT-737 and/or Obatoclax. After 24 h of treatment cell viability was assessed using CellTiter-Glo reagent (Promega).

xenografted DoHH2 tumors = experiment: DoHH2 xenograft treatment study; assay type: in vivo, NOD/SCID mice; conditions: for course of tumors after the treatment course / durability of response / tumor growth during the treatment course: PD 150 mg/kg p.o., ABT 50 mg/kg i.v., alternate days, days 1-14
Method: Xenografts and treatment studies. Xenograft mice were generated as described (Schatz et al., J Exp Med 208:1799-1807 (2011)); briefly, s.c. injection of 5 Mio DoHH2 or SU-DHL-8 human lymphoma cells mixed with matrigel (BD Bioscience, 354230) into the flanks of NOD/SCID (NOD.CB17-Prkdc^scid/J) mice. […] The control animals were treated with 50 mmol/L sodium lactate (pH4), PTD solution and 5% of Dextrose in water solution respectively. Tumors were weighed and volumes were measured twice weekly.
The translocation t(14;18) is the cytogenetic hallmark of FL and promotes lymphoma cell survival by activating the anti-apoptotic BCL2 protein. BH3 mimetic drugs like ABT-737 block BCL2 function by inserting into the BH3-binding groove of anti-apoptotic BCL2 proteins (Oltersdorf et al., Nature 435:677-681 (2005)).

vavBcl2/CDK4 lymphoma = experiment: Treatment of primary murine vavBcl2/CDK4 lymphomas in vivo; conditions: lymphocyte counts
vavBcl2/c-MYC lymphomas = experiment: Treatment of primary murine vavBcl2/c-MYC lymphomas in vivo
Method: Generation of mice. The vavP Bcl2 mouse model of FL (Lowe et al., Nature 432:307-315 (2004)) was adapted to adoptive transfer of retrovirally transduced HPCs^1. Data were analyzed in Kaplan-Meier format using the log-rank (Mantel-Cox) test for statistical significance. H&E, Ki67, TUNEL, P-RB, and surface marker analysis were as in (Staudt, N Engl J Med 356:741-742 (2007)).
Most FL cell lines are derived from transformed FLs and are carry the hallmark translocation t(14;18). These include DoHH2, Su-DHL-6, Su-DHL-16 and Ly 8 cells. These lines also have high levels of CDK4, CDK6, and phosphorylated RB (S780 and S795) (FIG. 10A) and DoHH2 cells carry a homozygous p16 deletion (Gronbaek et al., Leukemia 14:1727-1735 (2000)). To examine the effect of targeted therapies, the inventors first treated DoHH2, Su-DHL6, Su-DHL-16, and Ly8 cells with increasing doses of PD-0332991. […] Further, knockdown of either CDK4 or CDK6 alone was not sufficient for cell cycle arrest indicating functional compensation between these homologous RB kinases and the requirement to block both (FIG. 10I/J). Given the limitations of transformed FL-derived lines, the inventors also tested PD-0332991 against primary murine vavBcl2 induced lymphomas in vivo.

[2] = test system: DoHH2, Su-DHL6, Su-DHL-16, and Ly8 cells; experiment: Cell cycle assay in human lymphoma cell lines; assay type: cell-based
Method: Cell culture, cell cycle and viability assays. Lymphoma cell lines DoHH2, Ly-8, Su-DHL-6, Su-DHL-16, Su-DHL-8 and Su-DHL-10 were maintained in RPMI 1640 with 10% fetal bovine serum, 1% L-Glutamine and 1% penicillin/streptomycin. Human lymphoma cell lines treated with PD-0332991 and Obatoclax were analyzed for cell viability and cell cycle assays. Briefly, cells were seed at 5×10^5 per mL and they were treated with PD-0332991 and/or ABT-737 and/or Obatoclax. After 24 h of treatment cell viability was assessed using CellTiter-Glo reagent (Promega). Cell cycle assay based on uptake of DNA staining dye using Cell Cycle Reagent assays (cat. 4700-0169 from Guava Technologies, Millipore) was performed following to manufacturer instructions.

[3] = test system: RB phosphorylation (Ser 780); experiment: Immunoblot for RB phosphorylation in treated lymphoma cells; assay type: cell-based, human; conditions: DoHH2, Su-DHL6, Su-DHL-16, Ly8 cells treated with PD-0332991
Method: Western blot analysis. Immunoblots were performed from whole cell lysates or tissue samples as described (Steidl et al., Nature 471:377-381 (2011)). Briefly, 30 μg of protein/sample were resolved on SDS-PAGE gels and transferred to Immobilon-P-membranes (Millipore). Antibodies were against Rb (Cell Signaling cat #9309), Phospho-Rb S780 (Cell Signaling cat #3590), Phospho-Rb S795 (Cell Signaling cat #7986), CDK4 (Cell Signaling cat #2906), CyclinD3 (Cell Signaling cat #2936), Cyclin D1 (Cell Signaling cat #2926), Cyclin D2 (Cell Signaling cat #2924) p16 (Santa Cruz Biotechnology cat # sc 1207), Caspase 3 (Cell Signaling cat #9662) Tubulin (1:5000; Sigma, B-5-1-2). Enhanced chemiluminescence was used for detection (ECL, Amersham).

Row | SMILES | induction of apoptosis / cell death in vitro, single agent [1] | selectivity for cell lines carrying translocation t(14;18) [1] | course of tumors after the treatment course / durability of response (xenografted DoHH2 tumors) | tumor growth during the treatment course (xenografted DoHH2 tumors) | cell death in tumors in vivo (caspase cleavage, TUNEL) (xenografted DoHH2 tumors; tumors at end of treatment) | response of lymphoma bearing animals (vavBcl2/CDK4 lymphoma) | response of lymphoma bearing animals (vavBcl2/c-MYC lymphomas; histologically transformed vavBcl2/c-MYC lymphomas) | time by which all animals succumbed to disease (vavBcl2/c-MYC lymphomas; vav-Bcl2/Myc tumor bearing animals treated with PD-0332991) | RB phosphorylation (Ser 780) in tumors in vivo (xenografted DoHH2 tumors; immunoblot on lysates of treated tumors) | proliferation by Ki67 in tumors in vivo (xenografted DoHH2 tumors; immunohistochemistry at end of treatment) | cell cycle arrest after RB knockdown ([2]; DoHH2 cells expressing RB shRNA, PD-0332991 1 μM) | growth and cell cycle profile ([2]; increasing doses of PD-0332991, 24 h, all four lines) | RB phosphorylation in cells [3]
1 | CN(C)CC[C@H](CSc1ccccc1)Nc1ccc(S(=O)(=O)NC(=O)c2ccc(N3CCN(Cc4ccccc4-c4ccc(Cl)cc4)CC3)cc2)cc1[N+](=O)[O-] [ABT-737] | powerfully induced apoptosis and caspase cleavage | selective activity against cell lines that carry the translocation t(14;18) | residual tumors rapidly expanded thereafter | somewhat restrained tumor growth | significant cell death |  |  |  |  |  |  |  | 
2 | COC1=CC(c2cc3ccccc3[nH]2)=N/C1=C\c1[nH]c(C)cc1C [Obatoclax] | potently induced cell death | less selective for cells carrying the translocation t(14;18) |  |  |  |  |  |  |  |  |  |  | 
3 | CC(=O)c1c(C)c2cnc(Nc3ccc(N4CCNCC4)cn3)nc2n(C2CCCC2)c1=O [PD-0332991] |  |  | residual tumors rapidly expanded thereafter | somewhat restrained tumor growth |  | induced responses | ineffective | ≤ 10 days | complete loss of RB phosphorylation (Ser 780) | slowed proliferation by Ki67 | knockdown of RB bypassed the cell cycle arrest | complete growth arrest and accumulation in the G1 phase | loss of RB phosphorylation
